From US6465395B2, “Substituted methylene pyrazolinones and the herbicidal use thereof” (BASF Aktiengesellschaft, priority 2000, dated 2002)

Legend:
Type in all cases: in vivo
[1] = system: GOSHI, Cotton, Gossypium hirsutum, L.; assay: Postemergence herbicidal evaluation; details: crop (cotton)
Protocol: (§1) The postemergence herbicidal activity of the compounds of the present invention is evaluated by the following tests. Seedling plants are grown in jiffy flats for about two weeks. The test compounds are dispersed in 80/20 (v/v) acetone/water mixtures containing 1.0% SUN-IT®II, a methylated seed oil, in sufficient quantities to provide the equivalent of about 0.006 kg/ha to 0.800 kg/ha of active compound when applied to the plants through a spray nozzle operating at 40 psi for a predetermined time. After spraying, the plants are placed on greenhouse benches and are cared for in accordance with conventional greenhouse procedures. Approximately two to three weeks after treatment, the seedling plants are examined and rated according to the rating system set forth below. Where more than one test is involved for a given compound, the data are averaged.

[2] = system: PANDI, Panicum, Fall, Panicum dichotomiflorum, Michx; assay: Postemergence herbicidal evaluation
Protocol: as §1

[3] = system: AMBEL, Ragweed, Ambrosia artemisifolia, L.; assay: Postemergence herbicidal evaluation
Protocol: as §1

[4] = system: CHEAL, Lambsquarters, Chenopodium album, L.; assay: Postemergence herbicidal evaluation
Protocol: as §1

[5] = system: ABUTH, Velvetleaf, Abutilon theophrasti, Medic.; assay: Postemergence herbicidal evaluation
Protocol: as §1

[6] = system: ORYSAT, Rice, Tebonnet, Oryza sativa, (L.) Tebonnet; assay: Postemergence herbicidal evaluation; details: crop (rice)
Protocol: as §1

[7] = system: ECHCG, Barnyardgrass, Echinochloa crus-galli, (L.) Beau; assay: Postemergence herbicidal evaluation
Protocol: as §1

[8] = system: IPOSS, Morningglory spp., Ipomoea spp.; assay: Postemergence herbicidal evaluation
Protocol: as §1

[9] = system: ZEAMX, Corn, Field, Zea mays, L.; assay: Postemergence herbicidal evaluation; details: crop (corn)
Protocol: as §1

[10] = system: SETVI, Foxtail, Green, Setaria viridis, (L.) Beau; assay: Postemergence herbicidal evaluation
Protocol: as §1

[11] = system: PANDI, Panicum, Fall, Panicum dichotomiflorum, Michx; assay: Preemergence herbicidal evaluation
Source text: (§2) The preemergence herbicidal activity of the test compounds of the present invention is exemplified by the following tests in which the seeds of a variety of monocotyledonous and dicotyledonous plants are separately mixed with potting soil and planted on top of approximately one inch of soil in separate pint cups. After planting, the cups are sprayed with the selected aqueous acetone solution containing test compound in sufficient quantity to provide the equivalent of about 0.0125 kg/ha to 0.800 kg/ha of test compound per cup. The treated cups are then placed on greenhouse benches, watered and cared for in accordance with conventional greenhouse procedures. Approximately two to four weeks after treatment, the tests are terminated and each cup is examined and rated according to the rating system provided in Example 12. When more than one test is performed for a given compound, the data are averaged.

[12] = system: AMBEL, Ragweed, Ambrosia artemisifolia, L.; assay: Preemergence herbicidal evaluation
Source text: as §2

[13] = system: CHEAL, Lambsquarters, Chenopodium album, L.; assay: Preemergence herbicidal evaluation
Source text: as §2

[14] = system: ABUTH, Velvetleaf, Abutilon theophrasti, Medic.; assay: Preemergence herbicidal evaluation
Source text: as §2

[15] = system: ORYSAT, Rice, Tebonnet, Oryza sativa, (L.) Tebonnet; assay: Preemergence herbicidal evaluation; details: crop (rice)
Source text: as §2

[16] = system: ECHCG, Barnyardgrass, Echinochloa crus-galli, (L.) Beau; assay: Preemergence herbicidal evaluation
Source text: as §2

[17] = system: IPOSS, Morningglory spp., Ipomoea spp.; assay: Preemergence herbicidal evaluation
Source text: as §2

[18] = system: ZEAMX, Corn, Field, Zea mays, L.; assay: Preemergence herbicidal evaluation; details: crop (corn)
Source text: as §2

[19] = system: GOSHI, Cotton, Gossypium hirsutum, L.; assay: Preemergence herbicidal evaluation; details: crop (cotton)
Source text: as §2

[20] = system: SETVI, Foxtail, Green, Setaria viridis, (L.) Beau; assay: Preemergence herbicidal evaluation
Source text: as §2

## CCCS/C(=C1\C=NN(CC)C1=O)c1ccc2c(c1C)/C(=N/OC)CCS2(=O)=O [Example 8a, 1-Ethyl-4-[(E)-(5-methyl-4-oxothiochroman-6-yl)(propylthio)methylene]-2-pyrazolin-5-one 4′-[(E)-O-methyloxime], S,S-dioxide]
[1]; 0.0500 kg/ha
  Herbicide rating GOSHI: 0.0
[1]; 0.1000 kg/ha
  Herbicide rating GOSHI: 0.0
[1]; 0.2000 kg/ha
  Herbicide rating GOSHI: 0.0
[1]; 0.4000 kg/ha
  Herbicide rating GOSHI: 3.0
[1]; 0.8000 kg/ha
  Herbicide rating GOSHI: 6.0
[2]; 0.0500 kg/ha
  Herbicide rating PANDI: 3.0
[2]; 0.1000 kg/ha
  Herbicide rating PANDI: 6.0
[2]; 0.2000 kg/ha
  Herbicide rating PANDI: 7.0
[2]; 0.4000 kg/ha
  Herbicide rating PANDI: 6.0
[2]; 0.8000 kg/ha
  Herbicide rating PANDI: 9.0
[3]; 0.0500 kg/ha
  Herbicide rating AMBEL: 2.0
[3]; 0.1000 kg/ha
  Herbicide rating AMBEL: 3.0
[3]; 0.2000 kg/ha
  Herbicide rating AMBEL: 6.0
[3]; 0.4000 kg/ha
  Herbicide rating AMBEL: 7.0
[3]; 0.8000 kg/ha
  Herbicide rating AMBEL: 8.0
[4]; 0.0500 kg/ha
  Herbicide rating CHEAL: 7.0
[4]; 0.1000 kg/ha
  Herbicide rating CHEAL: 9.0
[4]; 0.2000 kg/ha
  Herbicide rating CHEAL: 9.0
[4]; 0.4000 kg/ha
  Herbicide rating CHEAL: 9.0
[4]; 0.8000 kg/ha
  Herbicide rating CHEAL: 9.0
[5]; 0.0500 kg/ha
  Herbicide rating ABUTH: 0.0
[5]; 0.1000 kg/ha
  Herbicide rating ABUTH: 1.0
[5]; 0.2000 kg/ha
  Herbicide rating ABUTH: 2.0
[5]; 0.4000 kg/ha
  Herbicide rating ABUTH: 8.0
[5]; 0.8000 kg/ha
  Herbicide rating ABUTH: 6.0
[6]; 0.0500 kg/ha
  Herbicide rating ORYSAT: 0.0
[6]; 0.1000 kg/ha
  Herbicide rating ORYSAT: 0.7
[6]; 0.2000 kg/ha
  Herbicide rating ORYSAT: 1.5
[6]; 0.4000 kg/ha
  Herbicide rating ORYSAT: 5.0
[6]; 0.8000 kg/ha
  Herbicide rating ORYSAT: 5.0
[7]; 0.0500 kg/ha
  Herbicide rating ECHCG: 8.0
[7]; 0.1000 kg/ha
  Herbicide rating ECHCG: 8.0
[7]; 0.2000 kg/ha
  Herbicide rating ECHCG: 8.0
[7]; 0.4000 kg/ha
  Herbicide rating ECHCG: 9.0
[7]; 0.8000 kg/ha
  Herbicide rating ECHCG: 9.0
[8]; 0.0500 kg/ha
  Herbicide rating IPOSS: 0.0
[8]; 0.1000 kg/ha
  Herbicide rating IPOSS: 0.0
[8]; 0.2000 kg/ha
  Herbicide rating IPOSS: 0.0
[8]; 0.4000 kg/ha
  Herbicide rating IPOSS: 2.0
[8]; 0.8000 kg/ha
  Herbicide rating IPOSS: 4.0
[9]; 0.0500 kg/ha
  Herbicide rating ZEAMX: 0.0
[9]; 0.1000 kg/ha
  Herbicide rating ZEAMX: 0.0
[9]; 0.2000 kg/ha
  Herbicide rating ZEAMX: 0.0
[9]; 0.4000 kg/ha
  Herbicide rating ZEAMX: 0.0
[9]; 0.8000 kg/ha
  Herbicide rating ZEAMX: 0.5
[10]; 0.0500 kg/ha
  Herbicide rating SETVI: 1.0
[10]; 0.1000 kg/ha
  Herbicide rating SETVI: 4.0
[10]; 0.2000 kg/ha
  Herbicide rating SETVI: 5.0
[10]; 0.4000 kg/ha
  Herbicide rating SETVI: 8.0
[10]; 0.8000 kg/ha
  Herbicide rating SETVI: 9.0
[11]; 0.4000 kg/ha
  Herbicide rating PANDI: 5.0
[11]; 0.8000 kg/ha
  Herbicide rating PANDI: 8.0
[12]; 0.4000 kg/ha
  Herbicide rating AMBEL: 3.0
[12]; 0.8000 kg/ha
  Herbicide rating AMBEL: 6.0
[13]; 0.4000 kg/ha
  Herbicide rating CHEAL: 9.0
[13]; 0.8000 kg/ha
  Herbicide rating CHEAL: 9.0
[14]; 0.4000 kg/ha
  Herbicide rating ABUTH: 2.0
[14]; 0.8000 kg/ha
  Herbicide rating ABUTH: 6.0
[15]; 0.4000 kg/ha
  Herbicide rating ORYSAT: 0.0
[15]; 0.8000 kg/ha
  Herbicide rating ORYSAT: 3.0
[16]; 0.4000 kg/ha
  Herbicide rating ECHCG: 0.0
[16]; 0.8000 kg/ha
  Herbicide rating ECHCG: 2.0
[17]; 0.4000 kg/ha
  Herbicide rating IPOSS: 0.0
[17]; 0.8000 kg/ha
  Herbicide rating IPOSS: 2.0
[18]; 0.4000 kg/ha
  Herbicide rating ZEAMX: 0.0
[18]; 0.8000 kg/ha
  Herbicide rating ZEAMX: 0.0
[19]; 0.4000 kg/ha
  Herbicide rating GOSHI: 0.0
[19]; 0.8000 kg/ha
  Herbicide rating GOSHI: 2.0
[20]; 0.4000 kg/ha
  Herbicide rating SETVI: 4.0
[20]; 0.8000 kg/ha
  Herbicide rating SETVI: 5.0
